Test results reported in patent publication US20250114374A1, “BCL-2 INHIBITORS” (Newave Pharmaceutical Inc., priority 2021, published 2025).

tested on: RS4; 11 with G101V mutation; assay: In vitro anti-proliferation assay (ATPlite luminescence) in BCL-2-dependent ALL cell line RS4;11 with G101V mutation; format: cell-based; settings: Homo sapiens, RS4-11, 72 h; read-out: RS411-G101V IC50
Method in brief: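 RS4;11 G101V cells at about 1×10^4 per well were exposed to a range of compound concentrations for about 72 h in medium with 10% FBS. Cellular ATP was measured by ATPlite luminescence after lysis, and IC50 was derived from the dose-response.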

| IC50 | Compound |
| --- | --- |
| 8 nM | COc1cc(CN2CCN(C3CC4(CCN(c5ccc(C(=O)NS(=O)(=O)c6cc7c(c([N+](=O)[O-])c6)N[C@@H](C6CCOCC6)CO7)c(N6c7cc8cc[nH]c8nc7O[C@H]7COCC[C@@H]76)c5)CC4)C3)[C@H](c3ccccc3C)C2)cnc1N1CCOCC1 [Example 142, 4-(2-((R)-4-((5-methoxy-6-morpholinopyridin-3-yl)methyl)-2-(o-tolyl)piperazin-1-yl)-7-azaspiro[3.5]nonan-7-yl)-N—(((S)-5-nitro-3-(tetrahydro-2H-pyran-4-yl)-3,4-dihydro-2H-benzo[b][1,4]oxazin-7-yl)sulfonyl)-2-((5aS,9aR)-6,7,9,9a-tetrahydro-1H-pyrano[3,4-b]pyrrolo[3′,2′:5,6]pyrido[3,2-e][1,4]oxazin-5(5aH)-yl)benzamide] |
| 7 nM | COc1cc(CN2CCN(C3CC4(CCN(c5ccc(C(=O)NS(=O)(=O)c6cc7c(c([N+](=O)[O-])c6)N[C@H](C6CCOCC6)CO7)c(N6c7cc8cc[nH]c8nc7O[C@H]7COCC[C@@H]76)c5)CC4)C3)[C@H](c3ccccc3C)C2)cnc1N1CCOCC1 [Example 143, 4-(2-((R)-4-((5-methoxy-6-morpholinopyridin-3-yl)methyl)-2-(o-tolyl)piperazin-1-yl)-7-azaspiro[3.5]nonan-7-yl)-N-(((R)-5-nitro-3-(tetrahydro-2H-pyran-4-yl)-3,4-dihydro-2H-benzo[b][1,4]oxazin-7-yl)sulfonyl)-2-((5aS,9aR)-6,7,9,9a-tetrahydro-1H-pyrano[3,4-b]pyrrolo[3′,2′:5,6]pyrido[3,2-e][1,4]oxazin-5(5aH)-yl)benzamide] |

| Compound | IC50 |
| --- | --- |
| COc1cc(CN2CCN(C3CC4(CCN(c5ccc(C(=O)NS(=O)(=O)c6ccc(NCC7CCOCC7)c([N+](=O)[O-])c6)c(N6c7cc8cc[nH]c8nc7O[C@H]7COCC[C@@H]76)c5)CC4)C3)[C@@H](c3ccccc3OC(C)C)C2)cnc1N1CCOCC1 [Example 144, 4-(2-((S)-2-(2-isopropoxyphenyl)-4-((5-methoxy-6-morpholinopyridin-3-yl)methyl)piperazin-1-yl)-7-azaspiro[3.5]nonan-7-yl)-N-((3-nitro-4-(((tetrahydro-2H-pyran-4-yl)methyl)amino)phenyl)sulfonyl)-2-((5aS,9aR)-6,7,9,9a-tetrahydro-1H-pyrano[3,4-b]pyrrolo[3′,2′:5,6]pyrido[3,2-e][1,4]oxazin-5(5aH)-yl)benzamide] | 7.3 nM |

same assay, conditions: cellular anti-proliferative IC50, about 72 hours, medium with 10% FBS, ATPlite; read-out: RS411-G101V IC50

| Compound | IC50 |
| --- | --- |
| COc1cc(CN2CCN(C3CC4(CCN(c5ccc(C(=O)NS(=O)(=O)c6ccc(NCC7CCC(C)(O)CC7)c([N+](=O)[O-])c6)c(N6c7cc8cc[nH]c8nc7O[C@H]7COCC[C@@H]76)c5)CC4)C3)[C@@H](c3ccccc3OC(C)C)C2)cnc1C1CC1 (stereo partly drawn) [Example 134, 4-{2-[(2S)-4-[(6-cyclopropyl-5-methoxypyridin-3-yl)methyl]-2-(2-isopropoxyphenyl)piperazin-1-yl]-7-azaspiro[3.5]nonan-7-yl}-2-[(3R,8S)-2,5-dioxa-9,15,17-triazatetracyclo[8.7.0.0^{3,8}.0^{12,16}]heptadeca-1(10),11,13,16-tetraen-9-yl]-N-[3-nitro-4-({[(1r,4r)-4-hydroxy-4-methylcyclohexyl]methyl}amino)benzenesulfonyl]benzamide] | 18.8 nM |
| COc1cc(CN2CCN(C3CC4(CCN(c5ccc(C(=O)NS(=O)(=O)c6ccc(NCC7CCC(C)(O)CC7)c([N+](=O)[O-])c6)c(N6c7cc8cc[nH]c8nc7O[C@H]7COCC[C@@H]76)c5)CC4)C3)[C@@H](c3ccccc3OC(C)C)C2)cnc1C (stereo partly drawn) [Example 135, 2-[(3R,8S)-2,5-dioxa-9,15,17-triazatetracyclo[8.7.0.0^{3,8}.0^{12,16}]heptadeca-1(10),11,13,16-tetraen-9-yl]-4-{2-[(2S)-2-(2-isopropoxyphenyl)-4-[(5-methoxy-6-methylpyridin-3-yl)methyl]piperazin-1-yl]-7-azaspiro[3.5]nonan-7-yl}-N-[3-nitro-4-({[(1r,4r)-4-hydroxy-4-methylcyclohexyl]methyl}amino)benzenesulfonyl]benzamide] | 11.2 nM |
| COc1ncc(CN2CCN(C3CC4(CCN(c5ccc(C(=O)NS(=O)(=O)c6ccc(NCC7CCC(C)(O)CC7)c([N+](=O)[O-])c6)c(N6c7cc8cc[nH]c8nc7O[C@H]7COCC[C@@H]76)c5)CC4)C3)[C@@H](c3ccccc3OC(C)C)C2)cc1C1CC1 (stereo partly drawn) [Example 136, 4-{2-[(2S)-4-[(5-cyclopropyl-6-methoxypyridin-3-yl)methyl]-2-(2-isopropoxyphenyl)piperazin-1-yl]-7-azaspiro[3.5]nonan-7-yl}-2-[(3R,8S)-2,5-dioxa-9,15,17-triazatetracyclo[8.7.0.0^{3,8}.0^{12,16}]heptadeca-1(10),11,13,16-tetraen-9-yl]-N-[3-nitro-4-({[(1r,4r)-4-hydroxy-4-methylcyclohexyl]methyl}amino)benzenesulfonyl]benzamide] | 35.6 nM |
| CC(C)Oc1ccccc1[C@H]1CN(Cc2cnc(N3CCOCC3)c(OC(C)C)c2)CCN1C1CC2(CCN(c3ccc(C(=O)NS(=O)(=O)c4ccc(NCC5CCC(C)(O)CC5)c([N+](=O)[O-])c4)c(N4c5cc6cc[nH]c6nc5O[C@H]5COCC[C@@H]54)c3)CC2)C1 (stereo partly drawn) [Example 137, 2-[(3R,8S)-2,5-dioxa-9,15,17-triazatetracyclo[8.7.0.0^{3,8}.0^{12,16}]heptadeca-1(10),11,13,16-tetraen-9-yl]-4-{2-[(2S)-4-{[5-isopropoxy-6-(morpholin-4-yl)pyridin-3-yl]methyl}-2-(2-isopropoxyphenyl)piperazin-1-yl]-7-azaspiro[3.5]nonan-7-yl}-N-[3-nitro-4-({[(1r,4r)-4-hydroxy-4-methylcyclohexyl]methyl}amino)benzenesulfonyl]benzamide] | 41.5 nM |
| COc1cc(CN2CCN(C3CC4(CCN(c5ccc(C(=O)NS(=O)(=O)c6ccc(NC[C@H]7CC[C@](C)(O)CC7)c([N+](=O)[O-])c6)c(N6c7cc8cc[nH]c8nc7O[C@H]7COCC[C@@H]76)c5)CC4)C3)[C@H](c3ccccc3C)C2)cnc1N1CCOC[C@@H]1C [Example 138, N-((4-((((1r,4r)-4-hydroxy-4-methylcyclohexyl)methyl)amino)-3-nitrophenyl)sulfonyl)-4-(2-((R)-4-((5-methoxy-6-((S)-3-methylmorpholino)pyridin-3-yl)methyl)-2-(o-tolyl)piperazin-1-yl)-7-azaspiro[3.5]nonan-7-yl)-2-((5aS,9aR)-6,7,9,9a-tetrahydro-1H-pyrano[3,4-b]pyrrolo[3′,2′:5,6]pyrido[3,2-e][1,4]oxazin-5(5aH)-yl)benzamide] | 1.7 nM |
| COc1cc(CN2CCN(C3CC4(CCN(c5ccc(C(=O)NS(=O)(=O)c6ccc(NCC7CCC(C)(O)CC7)c([N+](=O)[O-])c6)c(N6c7cc8cc[nH]c8nc7O[C@H]7COCC[C@@H]76)c5)CC4)C3)[C@H](c3ccccc3C)C2)cnc1N1CCOC[C@H]1C (stereo partly drawn) [Example 139, 2-[(3R,8S)-2,5-dioxa-9,15,17-triazatetracyclo[8.7.0.0^{3,8}.0^{12,16}]heptadeca-1(10),11,13,16-tetraen-9-yl]-4-{2-[(2R)-4-({5-methoxy-6-[(3R)-3-methylmorpholin-4-yl]pyridin-3-yl}methyl)-2-(2-methylphenyl)piperazin-1-yl]-7-azaspiro[3.5]nonan-7-yl}-N-[3-nitro-4-({[(1r,4r)-4-hydroxy-4-methylcyclohexyl]methyl}amino)benzenesulfonyl]benzamide] | 3.5 nM |
| COc1cc(CN2CCN([C@@H]3CC4(CCN(c5ccc(C(=O)NS(=O)(=O)c6ccc(NCC7CCC(C)(O)CC7)c([N+](=O)[O-])c6)c(N6c7cc8cc[nH]c8nc7O[C@H]7COCC[C@@H]76)c5)CC4)[C@@H]3C)[C@H](c3ccccc3C)C2)cnc1N1CCOCC1 (stereo partly drawn) [Example 140, 2-[(3R,8S)-2,5-dioxa-9,15,17-triazatetracyclo[8.7.0.0^{3,8}.0^{12,16}]heptadeca-1(10),11,13,16-tetraen-9-yl]-4-[(1S,2R)-2-[(2R)-4-{[5-methoxy-6-(morpholin-4-yl)pyridin-3-yl]methyl}-2-(2-methylphenyl)piperazin-1-yl]-1-methyl-7-azaspiro[3.5]nonan-7-yl]-N-[3-nitro-4-({[(1r,4r)-4-hydroxy-4-methylcyclohexyl]methyl}amino)benzenesulfonyl]benzamide] | 6.4 nM |
| COc1cc(CN2CCN([C@H]3CC4(CCN(c5ccc(C(=O)NS(=O)(=O)c6ccc(NCC7CCC(C)(O)CC7)c([N+](=O)[O-])c6)c(N6c7cc8cc[nH]c8nc7O[C@H]7COCC[C@@H]76)c5)CC4)[C@@H]3C)[C@H](c3ccccc3C)C2)cnc1N1CCOCC1 (stereo partly drawn) [Example 141, 2-[(3R,8S)-2,5-dioxa-9,15,17-triazatetracyclo[8.7.0.0^{3,8}.0^{12,16}]heptadeca-1(10),11,13,16-tetraen-9-yl]-4-[(1S,2S)-2-[(2R)-4-{[5-methoxy-6-(morpholin-4-yl)pyridin-3-yl]methyl}-2-(2-methylphenyl)piperazin-1-yl]-1-methyl-7-azaspiro[3.5]nonan-7-yl]-N-[3-nitro-4-({[(1r,4r)-4-hydroxy-4-methylcyclohexyl]methyl}amino)benzenesulfonyl]benzamide] | 35.9 nM |
| Cc1ccccc1[C@@H]1CN(Cc2cnc(N3CCOCC3)c(OC(C)C)c2)CCN1C1CC2(CCN(c3ccc(C(=O)NS(=O)(=O)c4ccc(NCC5CCC(C)(O)CC5)c([N+](=O)[O-])c4)c(N4c5cc6cc[nH]c6nc5O[C@H]5COCC[C@@H]54)c3)CC2)C1 (stereo partly drawn) [Example 145, 2-[(3R,8S)-2,5-dioxa-9,15,17-triazatetracyclo[8.7.0.0^{3,8}.0^{12,16}]heptadeca-1(10),11,13,16-tetraen-9-yl]-4-{2-[(2R)-4-{[5-isopropoxy-6-(morpholin-4-yl)pyridin-3-yl]methyl}-2-(2-methylphenyl)piperazin-1-yl]-7-azaspiro[3.5]nonan-7-yl}-N-[3-nitro-4-({[(1r,4r)-4-hydroxy-4-methylcyclohexyl]methyl}amino)benzenesulfonyl]benzamide] | 6.1 nM |
